Source: ChEMBL document CHEMBL1139104, “Synthesis and evaluation of 4-O-alkylated 2-deoxy-2,3-didehydro-N-acetylneuraminic acid derivatives as inhibitors of human parainfluenza virus type-3 sialidase activity” (Bioorg Med Chem Lett, 2007)

Test: Inhibition of sialidase in Human parainfluenza virus 3 C243
Set-up: species or system Human respirovirus 3

IC50 [µM]	SMILES
10	CCCCCCCCCCO[C@H]1C=C(C(=O)O)O[C@@H]([C@H](O)[C@H](O)CO)[C@@H]1NC(C)=O
25	CC(=O)N[C@H]1[C@H]([C@H](O)[C@H](O)CO)OC(C(=O)O)=C[C@@H]1NC(=N)N [ZANAMIVIR]
24	CC(=O)N[C@H]1[C@H]([C@H](O)[C@H](O)CO)OC(C(=O)O)=C[C@@H]1O [NEU5AC2EN]
10	CC(=O)N[C@H]1[C@H]([C@H](O)[C@H](O)CO)OC(C(=O)O)=C[C@@H]1OCc1ccccc1

Further lines, the compound ahead of its results:

SMILES	IC50 [µM]
CCO[C@H]1C=C(C(=O)O)O[C@@H]([C@H](O)[C@H](O)CO)[C@@H]1NC(C)=O	3
CCCCCCO[C@H]1C=C(C(=O)O)O[C@@H]([C@H](O)[C@H](O)CO)[C@@H]1NC(C)=O	5
CC(=O)N[C@H]1[C@H]([C@H](O)[C@H](O)CO)OC(C(=O)O)=C[C@@H]1OCc1ccccc1-c1ccccc1	30
